Patent US20240294541A1, “COMPOUNDS CONSTITUTING C20-MODIFIED SALINOMYCIN DERIVATIVES, A METHOD FOR OBTAINING THE SAME, A COMPOSITION CONTAINING THE SAME AND A USE OF SAID COMPOUNDS” (FILECLO SPOLKA Z OGRANICZONA ODPOWIEDZIALNOSCIA, priority 2021, published 2024)
“And” between values parts separate entries of the source, which are not always exact repeats. Equal values may be shown once. Read-outs that look alike come from different tables or passages of the source.

Tests used:
Type in all cases: cell-based
[1] = tested on: NCI-H23 (human lung cancer); experiment: In vitro cytotoxicity, SRB assay, NCI-H23; details: 72 h with compound, SRB, n/a = non-active compound, read-out: NCI-H23 IC50
[2] = tested on: PFSK-1 (malignant primitive neuroectodermal tumour); experiment: In vitro cytotoxicity, SRB assay, PFSK-1; details: 72 h with compound, SRB, n/a = non-active compound, read-out: PFSK-1 IC50
[3] = tested on: A2780 (human ovarian cancer); experiment: In vitro cytotoxicity, SRB assay, A2780; details: 72 h with compound, SRB, n/a = non-active compound, read-out: A2780 IC50
[4] = tested on: A2780Cis (cisplatin-resistant human ovarian cancer); experiment: In vitro cytotoxicity, SRB assay, A2780Cis
A375 (human melanoma) = experiment: In vitro cytotoxicity, SRB assay, A375; details: 72 h with compound, SRB, n/a = non-active compound, read-out: A375 IC50
Hs294T (human melanoma) = experiment: cells; details: for SI Hs294T: selectivity coefficient vs normal BALB/3T3 fibroblasts
[5] = tested on: PLC/PRF/5 (human liver cancer); experiment: cells; details: for SI PLC/PRF/5: selectivity coefficient vs normal BALB/3T3 fibroblasts
[6] = tested on: SNU-16 (human gastric cancer); experiment: cells; details: for SI SNU-16: selectivity coefficient vs normal BALB/3T3 fibroblasts
[7] = tested on: MIA PaCa-2 (human pancreatic cancer); experiment: cells; details: for SI MIA PaCa-2: selectivity coefficient vs normal BALB/3T3 fibroblasts
[8] = tested on: BALB/3T3 (normal mouse fibroblasts); experiment: In vitro cytotoxicity, SRB assay, normal BALB/3T3 fibroblasts
[9] = tested on: MV-4-11 (human biphenotypic leukaemia); experiment: In vitro cytotoxicity, MTT assay, MV-4-11
[10] = tested on: NCI-H358 (human lung cancer); experiment: cells; details: Table 4; for IC50: NCI-H358 human lung cancer cells, read-out: IC50 (nM) NCI-H358; for SI NCI-H358: selectivity coefficient vs normal BALB/3T3 fibroblasts
[11] = tested on: KG-1 (human acute myeloid leukaemia); experiment: In vitro cytotoxicity, MTT assay, KG-1; details: Homo sapiens; 72 h with compound, MTT; n/a = non-active compound
cancer cells = experiment: In vitro cytotoxic activity on the panel of cancer cell lines (MTT/SRB), general statements; details: Tables 3.1, 3.2, 4 and 5; parent compound salinomycin
[12] = Table 4, PLC/PRF/5 human liver cancer cells, read-out: IC50 (nM) PLC/PRF/5
[13] = Table 4, SNU-16 human gastric cancer cells, read-out: IC50 (nM) SNU-16
[14] = Table 4, MIA PaCa-2 human pancreatic cancer cells, read-out: IC50 (nM) MIA PaCa-2
[15] = Table 4, BALB/3T3 normal mouse fibroblasts, read-out: IC50 (nM) BALB3T3 normal cells
[16] = Table 5, BALB/3T3 normal mouse fibroblasts, read-out: IC50 (nM) BALB3T3 normal cells
[17] = Hs 294T, Table 4, Hs294T human melanoma cells, read-out: IC50 (nM) Hs294T
[18] = Homo sapiens, A2780cis, read-out: IC50 (nM) A2780Cis
[19] = Homo sapiens, MV4-11, read-out: IC50 (nM) MV4-11

Compound	IC50 [5, 12] [nM]	IC50 [6, 13] [nM]	IC50 [7, 14] [nM]	IC50 [8, 15] [nM]	IC50 [10] [nM]	IC50 (Hs294T (human melanoma); [17]) [nM]	SI A2780Cis [4]	IC50 [4, 18] [nM]	SI Hs294T (Hs294T (human melanoma); Table 4)	SI PLC/PRF/5 ([5]; Table 4)	SI SNU-16 ([6]; Table 4)	SI MIA PaCa-2 ([7]; Table 4)	SI MV4-11 [9]	IC50 [9, 19] [nM]	SI NCI-H358 [10]	anti-proliferative effect compared to that of the parent compound (cancer cells)	also measured
N.N.[Cl][Pt][Cl] [Cisplatin, cisplatin, reference compound]	1580	2330	2360	1390	2550	–	–	–	–	–	–	–	–	–	–	–	IC50 [1]: 2320 nM; IC50 [2]: 1510 nM; IC50 [3]: 178 nM; A2780Cis RI [4]: 14.6; IC50 ([4]; read-out: A2780Cis IC50): 2610 nM; IC50 ([4]; read-out: IC50 (nM) A2780Cis): 2610 nM and 2870 nM; IC50 (A375 (human melanoma)): 410 nM; IC50 (Hs294T (human melanoma); 72 h with compound, SRB, n/a = non-active compound, read-out: Hs294T IC50): 736 nM; IC50 (Hs294T (human melanoma); Table 4, Hs294T human melanoma cells, read-out: IC50 (nM) Hs294T): 736 nM; IC50 ([5]; 72 h with compound, SRB, n/a = non-active compound, read-out: PLC/PRF/5 IC50): 1580 nM; IC50 ([6]; 72 h with compound, MTT, n/a = non-active compound, read-out: SNU-16 IC50): 2330 nM; IC50 ([7]; 72 h with compound, SRB, n/a = non-active compound, read-out: MIA PaCa-2 IC50): 2360 nM; IC50 [8, 16]: 1390 nM; IC50 ([8]; normal cells, 72 h with compound, SRB, n/a = non-active compound, read-out: BALB/3T3 IC50): 1390 nM; IC50 ([9]; read-out: IC50 (nM) MV4-11): 166 nM
CC[C@@H](C(=O)[C@@H](C)[C@@H](O)[C@H](C)[C@@H]1O[C@@H]([C@@H](CC)C(=O)O)CC[C@@H]1C)[C@H]1O[C@]2(C=C[C@@H](O)[C@]3(CC[C@@](C)([C@H]4CC[C@](O)(CC)[C@H](C)O4)O3)O2)[C@H](C)C[C@@H]1C [FLC-00001 (SAL), Salinomycin]	504	145	304	–	600	2160	–	–	–	–	–	–	–	–	–	–	IC50 ([1]; Homo sapiens, NCI-H23): 356 nM; IC50 ([2]; Homo sapiens, PFSK-1): 336 nM; IC50 ([3]; Homo sapiens, A2780): 120 nM; IC50 (A375 (human melanoma); Homo sapiens, A-375): 574 nM; IC50 (Hs294T (human melanoma); Homo sapiens, Hs 294T, 72 h with compound, SRB, n/a = non-active compound, read-out: Hs294T IC50): 2160 nM; IC50 ([5]; Homo sapiens, PLC-PRF-5, 72 h with compound, SRB, n/a = non-active compound, read-out: PLC/PRF/5 IC50): 504 nM; IC50 ([6]; Homo sapiens, SNU-16, 72 h with compound, MTT, n/a = non-active compound, read-out: SNU-16 IC50): 145 nM; IC50 [11]: 429 nM; IC50 ([7]; Homo sapiens, MIA PaCa-2, 72 h with compound, SRB, n/a = non-active compound, read-out: MIA PaCa-2 IC50): 304 nM
CC[C@@H](C(=O)[C@@H](C)[C@@H](O)[C@H](C)[C@@H]1O[C@@H]([C@@H](CC)C(=O)O)CC[C@@H]1C)[C@H]1O[C@]2(C=C[C@@H](NC(=O)OCCOC)[C@]3(CC[C@@](C)([C@H]4CC[C@](O)(CC)[C@H](C)O4)O3)O2)[C@H](C)C[C@@H]1C [FLC-00459-1•Na]	92.2	535	78.3	1070	531	786	30.7	34.7	1.4	11.6	2.0	13.6	31.8	33.6	2.01	–	–
CC[C@@H](C(=O)[C@@H](C)[C@@H](O)[C@H](C)[C@@H]1O[C@@H]([C@@H](CC)C(=O)O)CC[C@@H]1C)[C@H]1O[C@]2(C=C[C@@H](NC(=O)OCCOc3ccccc3)[C@]3(CC[C@@](C)([C@H]4CC[C@](O)(CC)[C@H](C)O4)O3)O2)[C@H](C)C[C@@H]1C [FLC-00460-1•Na]	17.6	130	13.6	92.8	282	309	94.4	0.98	0.3	5.3	0.7	6.8	50.0	1.86	0.33	–	–
CC[C@@H](C(=O)[C@@H](C)[C@@H](O)[C@H](C)[C@@H]1O[C@@H]([C@@H](CC)C(=O)O)CC[C@@H]1C)[C@H]1O[C@]2(C=C[C@@H](NC(=O)c3ccccc3Cl)[C@]3(CC[C@@](C)([C@H]4CC[C@](O)(CC)[C@H](C)O4)O3)O2)[C@H](C)C[C@@H]1C [FLC-00462-1•Na]	63.8	339	52	552	397	1810	24.5	22.5	0.3	8.6	1.6	10.6	40.4	13.7	1.39	–	–
CC[C@@H](C(=O)[C@@H](C)[C@@H](O)[C@H](C)[C@@H]1O[C@@H]([C@@H](CC)C(=O)O)CC[C@@H]1C)[C@H]1O[C@]2(C=C[C@@H](NC(=O)C3CCC3)[C@]3(CC[C@@](C)([C@H]4CC[C@](O)(CC)[C@H](C)O4)O3)O2)[C@H](C)C[C@@H]1C [FLC-00463-1•Na]	–	–	–	–	–	–	266.3	0.72	–	–	–	–	96.5	1.98	–	several times more potent compared to that of the parent compound	IC50 [8, 16]: 191 nM
CC[C@@H](C(=O)[C@@H](C)[C@@H](O)[C@H](C)[C@@H]1O[C@@H]([C@@H](CC)C(=O)O)CC[C@@H]1C)[C@H]1O[C@]2(C=C[C@@H](NC(=O)C3CCCCC3)[C@]3(CC[C@@](C)([C@H]4CC[C@](O)(CC)[C@H](C)O4)O3)O2)[C@H](C)C[C@@H]1C [FLC-00464-1•Na]	–	–	–	–	–	–	–	–	–	–	–	–	–	–	–	several times more potent compared to that of the parent compound	–
CC[C@@H](C(=O)[C@@H](C)[C@@H](O)[C@H](C)[C@@H]1O[C@@H]([C@@H](CC)C(=O)O)CC[C@@H]1C)[C@H]1O[C@]2(C=C[C@@H](NC(=O)c3ccc(F)cc3)[C@]3(CC[C@@](C)([C@H]4CC[C@](O)(CC)[C@H](C)O4)O3)O2)[C@H](C)C[C@@H]1C [FLC-00470-1•Na]	–	–	–	–	–	–	–	–	–	–	–	–	–	–	–	several times more potent compared to that of the parent compound	–
CC[C@@H](C(=O)[C@@H](C)[C@@H](O)[C@H](C)[C@@H]1O[C@@H]([C@@H](CC)C(=O)O)CC[C@@H]1C)[C@H]1O[C@]2(C=C[C@@H](NC(=S)SC)[C@]3(CC[C@@](C)([C@H]4CC[C@](O)(CC)[C@H](C)O4)O3)O2)[C@H](C)C[C@@H]1C [FLC-00475-1•Na]	–	–	–	–	–	–	–	–	–	–	–	–	–	–	–	several times more potent compared to that of the parent compound	–
CC[C@@H](C(=O)[C@@H](C)[C@@H](O)[C@H](C)[C@@H]1O[C@@H]([C@@H](CC)C(=O)O)CC[C@@H]1C)[C@H]1O[C@]2(C=C[C@@H](NC(=O)c3ccc(OC(F)(F)F)cc3)[C@]3(CC[C@@](C)([C@H]4CC[C@](O)(CC)[C@H](C)O4)O3)O2)[C@H](C)C[C@@H]1C [FLC-00486-1•Na]	–	–	–	–	–	–	–	–	–	–	–	–	–	–	–	several times more potent compared to that of the parent compound	–
